The text below walks through data of patent US20220062291A1, “COMPOSITIONS AND METHODS OF TREATING CANCERS BY ADMINISTERING A PHENOTHIAZINE-RELATED DRUG THAT ACTIVATES PROTEIN PHOSPHATASE 2A (PP2A) WITH REDUCED INHIBITORY ACTIVITY TARGETED TO THE DOPAMINE D2 RECEPTOR AND ACCOMPANYING TOXICITY” (DANA-FARBER CANCER INSTITUTE, INC., priority 2018, published 2022).

Series [1] concerns KOPT-K1 cells. Nature of the series: Microtubule and chromatin staining of cytospins. Particulars: 24 hours. It is filed as cell-based, human.
The target of series [2] is T1, human dopamine receptor D2 (DRD2) (Homo sapiens, UniProt P14416).
T1 construct: expressed in transfected cells; host or cells: HEK293T (pcDNA3 vectors)
T1 sequence (P14416 whole entry): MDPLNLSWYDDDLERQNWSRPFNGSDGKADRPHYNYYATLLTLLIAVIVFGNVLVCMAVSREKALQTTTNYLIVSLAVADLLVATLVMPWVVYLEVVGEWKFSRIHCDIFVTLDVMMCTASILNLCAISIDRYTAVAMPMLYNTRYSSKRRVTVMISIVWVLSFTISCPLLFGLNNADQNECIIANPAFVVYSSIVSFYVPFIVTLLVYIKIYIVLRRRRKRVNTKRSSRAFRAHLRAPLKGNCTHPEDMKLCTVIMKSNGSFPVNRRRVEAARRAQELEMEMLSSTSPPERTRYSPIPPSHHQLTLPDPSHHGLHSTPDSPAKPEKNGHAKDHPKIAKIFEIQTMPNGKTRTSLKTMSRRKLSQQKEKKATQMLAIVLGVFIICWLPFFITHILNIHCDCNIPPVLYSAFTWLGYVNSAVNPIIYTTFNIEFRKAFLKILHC
Nature of the series: Dopamine receptor D2 inhibition assay (SRE-luciferase reporter in HEK293T cells). Particulars: for inhibitory activity on DRD2: 0.5, 1, 2 and 4 μM for three hours with 2 μM dopamine. The class given is cell-based.
Source text: (§1) The human dopamine receptor D2 (DRD2) and modified murine Gq5i cDNAs were inserted into pcDNA3 expression vectors. After verifying the PCR products by DNA sequencing, DRD2, Gq5i and the PathDetect pSRE-Luc Cis-Reporter Plasmid (#219080, Agilent Technologies) were transfected to HEK293T cells. As previously reported, Gq5i enables Gi/o-coupled receptor activity to be detected using a serum response element (SRE)-luciferase reporter gene (See, Conklin et al., Nature 363(6426):274-6 (1993); Al-Fulaij et al., J. Pharmacol. Exp. Ther. 321(1):298-307 (2007)). These cells were starved in FCS-free DMEM medium for six hours before incubating them with 2 μM dopamine hydrochloride (Sigma Aldrich) together with each of the compound at 0, 0.5, 1, 2 and 4 μM for three hours. The reporter activity was measured using Pierce™ Firefly Luciferase Glow Assay Kit (Thermo Fisher Scientific).
For IC50 calculation, KOPT-K1 cells were treated with each of the compounds at various concentrations for 72 hours, followed by the determination of viable cell numbers with PrestoBlue® cell viability reagent. For the PP2A phosphatase activity assay, KOPT-K1 cells were treated with each of the compounds at 10 μM for 3 hours before phosphatase activity was measured. Dopamine D2 receptor activity was monitored in HEK293T cells coexpressing the dopamine D2 receptor, modified G protein and SRE luciferase reporter. Cells were treated with each of the compound at 10 μM for 3 hours, then lysed for the luciferase reporter assay.
as §1, with “D2” for “D2 (DRD2)”, “363(6426):274-276” for “363(6426):274-6”, “0.5” for “0, 0.5, 1, 2 and 4”

In series [3] the test system is MYBL2 Ser241 in KOPT-K1 cells. Kind of series: Phosphoproteomics analysis. It is filed as cell-based, human. Particulars: 3 hours.
Procedure: To evaluate phosphopeptides in KOPT-K1 cells by phosphoproteomics analysis, cells were treated with PPZ at 10 μM or iPAP1 at 1 μM for 3 hours.
The test system of series [4] is KOPT-K1 cells. Kind of series: Survival of NSG mice xenotransplanted with KOPT-K1 cells. It is filed as in vivo, NSG (NOD/Scid/IL2Rγnull) mice. The conditions noted are these: 2.5 mg/kg/day, oral, from day 10. From the text:
At day one, 1×10^6 KOPT-K1 cells were intravenously injected into each mouse via its tail veins.

Series [5] in a line: Movement disorder in free-swimming zebrafish embryos. It is filed as in vivo. Particulars: five days. From the text: Note that the embryos were not anesthetized. Scale bar: 0.1 mm.
For series [6], the system named is KOPT-K1 cells with PP2A subunit inactivation. Nature of the series: Drug sensitivity of KOPT-K1 sublines with CRISPR-Cas9 PP2A subunit knockout. The class given is cell-based, human. Particulars: 72 hours. The method, then: Two gRNAs with different target sequences were designed for each subunit (#1 and #2). Control gRNAs target luciferase gene. […] Data are presented as means±s.d. (n=3-5, biological replicates). ***P<0.001 by Student's t-test (FIG. 3A).
SMAP sensitivity in KOPT-K1 cells was measured after PP2A subunit inactivation. Only each subunit of PP2A was knocked out by CRISPR-Cas9 with unique gRNAs. […] Two gRNAs with different target sequences were designed for each subunit (#1 and #2). Control gRNAs target luciferase gene. Data are presented as means±s.d. (n=3-5, biological replicates). ***P<0.001 by Student's t-test (FIG. 3B).
To identify the subunits of PP2A that are essential for the antitumor activity of iPAP1, CRISPR-Cas9 was used to establish a series of sublines of KOPT-K1 T-ALL cells, each lacking one of the 19 specific PP2A subunits (FIG.1A-FIG. 2), and to examine their sensitivity to iPAP1-induced growth inhibition.
With this panel of PP2A subunit knockout cells in hand, we analyzed the PP2A subunits required for growth suppression by SMAPs, another class of allosteric activators of PP2A (Gutierrez et al., J. Clin. Invest. 124:644-655 (2014); Sangodkar et al., J. Clin. Invest. 127:2081-2090 (2017)). […] Both the PPP2R5E and PPP2R2A regulatory subunits of PP2A were among the most highly expressed in a series of 16 different T-ALL cell lines (FIG. 5A). Thus, the assembly of structurally different heterotrimeric PP2A complexes induced with either iPAP1 or SMAP cannot be attributed to imbalances in cellular expression levels of individual PP2A subunits, but likely stems from differences in the allosteric alterations of the A subunit protein resulting from the binding of these two classes of small molecules, which have different chemical structures.

Series [7] concerns α and β tubulins in KOPT-K1 cell lysates. Nature of the series: Cellular thermal shift assay (CETSA), tubulins. It is filed as binding, human. As for the experimental part: Data are presented as means±s.d. (n=3, biological replicates). The quantitation of levels α and β tubulins detected by specific antibodies was determined using western blotting (FIG. 19E). Alpha (α) and tubulin levels were quantified during CETSA by Image J software of KOPT-K1 cell lysates treated or untreated with iPAP1 at various temperatures for 3 minutes. […] The CETSA curves for KOPT-K1 cell lysates with and without the addition of iPAP1 after incubation for 3 minutes are shown in FIG. 19F and FIG. 19G. […] Data are presented as means±s.d. (n=3, biological replicates). The quantitation of levels α and β tubulins detected by specific antibodies using western blotting (FIG. 19H). α and β tubulin levels were quantified during CETSA by Image J software of KOPT-K1 cell lysates treated or untreated with iPAP1 at various temperature for 3 minutes.

Entries after “also recorded” stand apart in the source; their conditions may differ.

For `OCCN1CCN(CCCN2c3ccccc3Sc3ccc(Cl)cc32)CC1` [PPZ, perphenazine, reference compound], in the series with KOPT-K1 cells [1] (10 μM and 20 μM), the “mitotic and microtubule phenotype” value was “prometaphase arrest at the monopolarity stage”. Besides, the “inhibitory activity on DRD2” value in series [2] was “strong inhibitory activity on DRD2 at 0.5 μM; also recorded: strong inhibitory activity of DRD2 activity at concentrations as low as 0.5 μM”. Moreover, in series [3] (10 μM), the “phosphorylation of MYBL2” value is listed as “completely dephosphorylated at Ser241”. Besides, the overall survival entry with KOPT-K1 cells [4] is given as “did not show any survival advantage over the control”. In addition, the “swimming behaviour / movement disorder” value in series [5] (5 μM) is “exhibited movement disorders and swam upside down or on their sides”. Moreover, in series [6] (5 μM), the “PP2A subunits whose knockout gives resistance” value is recorded as “resistance to PPZ treatment only when the specific subunits PPP2R1A, PPP2CA or PPP2R5E were knocked out”. The “protection of α or β tubulins from thermal degradation” value in series [7] is listed as “did not protect α or β tubulins from thermal degradation”.

For `COc1ccc(C(=O)N2c3ccccc3Sc3ccc(Cl)cc32)cc1` [iPAP1], in the series on KOPT-K1 cells [1] (2 μM and 5 μM), the “mitotic and microtubule phenotype” value was “prometaphase arrest at the monopolarity stage”. For the same molecule, the “inhibitory activities on DRD2” value in series [2] (0.5 μM for three hours with 2 μM dopamine) was “did not show inhibitory activities on DRD2”. Also, the “inhibitory activity against DRD2 compared to PPZ” value in series [2] (10 μM for three hours) was about 1%. Further, the “inhibitory activity on DRD2” value in series [2] is recorded as “no inhibitory activity of DRD2 signaling at concentrations up to 4 μM”. For the same molecule, in series [2] (0.5 to 4 μM), the “DRD2 inhibitory activity as share of the activity of PPZ” value is reported as “less than 1%”. The “less active in inhibiting DRD2 than PPZ” value in series [2] (multiple molar concentrations) was “more than 100 fold”. Besides, the “phosphorylation of MYBL2” value in series [3] (1 μM) is reported as “completely dephosphorylated at Ser241”. The overall survival entry in the series with KOPT-K1 cells [4] is “significantly extended the overall survival period”. Besides, in series [5] (2 μM), the “swimming behaviour / movement disorder” value was “swam upright”. In series [6] (0.5 μM), the “PP2A subunits whose knockout gives resistance” value is on record as “resistance to iPAP1 treatment only when the PPP2R1A, PPP2CA or PPP2R5E subunits were disrupted”. Besides, the “protection of α or β tubulins from thermal degradation” value in series [7] is recorded as “did not protect α or β tubulins from thermal degradation”.
